Assay results: ChEMBL document CHEMBL1150026, “Synthesis of 2,3-dideoxy-2,3-didehydronucleoside analogues as potential anti HIV agents” (Bioorg Med Chem Lett, 1992)
The source made the active and inactive calls. No cut-off for these calls is given here.

Tested on: C8166
Test: Compound was tested for antiviral activity against HIV C 8166 cells at a concentration of 5-50 uM; NS - No significant activity
Type: functional, cell-based
Conditions: Homo sapiens

Compound	Activity
COC(=O)C(C(=O)OC)=C1NC(=O)N(C2C=CC(CO)O2)C=C1C (stereo not drawn)	inactive
CCSc1nc(=O)n(C2C=CC(CO)O2)cc1C (stereo not drawn)	inactive
COc1nc(=O)n(C2C=CC(CO)O2)cc1C (stereo not drawn)	inactive
